Values quoted from earlier work, collected in patent US20030207846A1, “Treatment of pain, inflammation, and inflammation-related disorders with a combination of a cyclooxygenase-2 selective inhibitor and aspirin” (Pharmacia Corporation, priority 2002, published 2003).

Assays:
upper GI tract = details: low-dose 75-300 mg/day
[1] = tested on: platelet aggregation and ex-vivo serum-generated thromboxane B2 production; details: healthy human subjects

Row | Structure (SMILES) | risk of upper GI tract complications (upper GI tract) | inhibition of platelet function (platelet function; 40 mg, conditions of limited compliance) | efficacy as an antiplatelet agent (platelet function; 100-300 mg/day, plain or slow release form) | tolerability ([1]; alone or in combination with the aspirin) | effect on the anti-platelet effects of aspirin (inhibition of platelet aggregation and ex-vivo serum-generated thromboxane B2 production) ([1]; rofecoxib 50 mg/day with aspirin 81 mg/day)
1 | CC(=O)Oc1ccccc1C(=O)O [aspirin, 2-(acetyloxy)benzoic acid] | increased the risk of upper GI tract complications | not sufficient to inhibit platelet function | very effective | – | –
2 | CS(=O)(=O)c1ccc(C2=C(c3ccccc3)C(=O)OC2)cc1 [rofecoxib] | – | – | – | well-tolerated | did not alter the anti-platelet effects of the aspirin
